# According to PubChem BioAssay AID2060899 (Molecular Pharmacology Branch, DTP, NCI, 2025):
# Tested on: 565726-208-R1-J5-PDC complex spheroids, growth inhibition
# Assay: Anticancer human tumor 565726-208-R1-J5-PDC patient-derived pancreatic adenocarcinoma cell line growth inhibition [RAS]
# Settings: for IC50: curve of first compound; for viability, T/C: stronger effect = lower value
# Description: RAS pathway inhibitors in Combinations in Complex Spheroids
# A high-throughput screen of multi-cell type tumor spheroids was designed to identify active combinations of RAS pathway inhibitors and targeted small molecules. Complex spheroids include a stromal component modeled by human endothelial cells (HUVEC) and fibroblasts modeled by human mesenchymal stem cells (MSCs). The concentration ranges selected for each drug and investigational agent were based upon clinically achievable concentrations if the clinical Cmax of the agent was known.
# Compounds. The drugs and investigational agents: abemaciclib (NSC768073), cobimetinib (NSC768068), divarasib (GDC6063, NSC841802), docetaxel (NSC628503), GDC-1971 (RLY-1971, NSC841576), gemcitabine (NSC613327), inavolisib (NSC800729), ipatasertib (NSC767898), KB-0742 (NSC834161), MRTX-1133 (NSC836407), osimertinib (NSC779217), RMC-4630 (NSC839698), RMC-6236 (NSC851965), RMC-6291 (NSC852671), Ro-3306 (NSC812927), sapanisertib (NSC764658), SN-38 (NSC673596), staurosporine (NSC755774), SY5609 (NSC837396), and tovorafenib (DAY101, NSC766906), were obtained from the National Cancer Institute (NCI) Developmental Therapeutics Program Chemical Repository. The FDA-approved anticancer drug set is available from the NCI Developmental Therapeutics Program. […] The stock solutions were prepared in dimethyl sulfoxide (DMSO, Sigma-Aldrich, St. Louis, MO, cat. D2650) at 800-fold the tested concentration and stored at -70 degrees C prior to their use. All drugs and investigational agents were tested over a range starting from a high concentration at or near the clinical Cmax and decreasing in half-log increments. If the clinical Cmax for an agent had not been determined, the highest concentration tested was 10 microM.
# Cell Culture. All cells were maintained in an incubator at 37 degrees C and 5% CO2 with 95% humidity. The PDC lines were cultured according to standard operating procedures established by the NCI PDMR. All PDCs were thawed and cultured in Matrigel-coated flasks prepared with a working solution of 1X Ham's F-12 nutrient mix, without supplementation (Invitrogen, Waltham, MA, cat. 11765054), 100 U/mL penicillin-streptomycin (Invitrogen, cat. 15140122), and 2.5% Matrigel (Corning Inc., Corning, NY, cat. 354248) for the first three passages. The 362531-283-R-J2-PDC and 782815-120-R-J1-PDC lines were cultured in 6C/Colon 1B media, which includes advanced DMEM/F-12 (Thermo Fisher Scientific, cat. 12634028), 10 mM HEPES (Thermo Fisher Scientific, cat. 15630080), 1X GlutaMAX supplement (Thermo Fisher Scientific, cat. 35050061), 0.1 mg/mL primocin (InvivoGen, San Diego, CA, cat. ant-pm-2), 10% defined fetal bovine serum, heat inactivated (HyClone Laboratories Inc., Logan, UT, cat. SH30070.03HI), 50% L-WRN conditioned media (ATCC, cat. CRL-3276), 1.25 mM N-Acetyl-L-cysteine (Sigma-Aldrich, cat. A9165), 10 mM nicotinamide (Sigma-Aldrich, cat. N0636), 1X B-27 supplement (Thermo Fisher Scientific, cat. 17504044), 1X N-2 supplement (Thermo Fisher Scientific, cat. 17502048), 50 ng/mL human EGF (Thermo Fisher Scientific, cat. PHG0311), and 10 microM Y-27632 dihydrochloride (Tocris Bioscience, cat. 1254). The K12877-001-R-J1-PDC line was cultured in 6I media, which includes all 6C/Colon 1B media plus 10 ng/mL human FGF-10 (PeproTech, cat. 100-26), 1 ng/mL human FGF-2 (PeproTech, cat. 100-18B), 1 µM prostaglandin E2 (Tocris Bioscience, cat. 2296), […] hydrocortisone (Sigma-Aldrich, cat. H4001), and […] bovine insulin (Sigma-Aldrich, cat. I6634). The K86415-001-R-J1-PDC line was cultured in 6D media, which includes all 6C/Colon 1B media components minus the L-WRN conditioned media. The 485176-168-R4-J1-PDC was cultured in PANC media, which includes all 6C/Colon 1B media plus 100 ng/mL human FGF-10 (PeproTech, cat. 100-26), 500 nM SB-431542 (Selleckchem, cat. S1067), and 10 nM gastrin (Tocris Bioscience, cat. 3006). […]
# 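Also: spheroids exposed to compounds for seven days before readout.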
# 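For viability, T/C in this document: 100% = DMSO vehicle control viability.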
structure (smiles),measurement,setting,value
CC(=O)OC12COC1CC(O)C1(C)C(=O)C(O)C3=C(C)C(OC(=O)C(O)C(NC(=O)OC(C)(C)C)c4ccccc4)CC(O)(C(OC(=O)c4ccccc4)C21)C3(C)C (configuration not stated) + CCn1c(-c2cccnc2C(C)OC)c2c3cc(ccc31)N1CCOC(CC(NC(=O)C(C(C)C)N(C)C(=O)C3(F)CCN(C(=O)C#CC(C)(C)N(C)C)CC3)C(=O)N3CCCC(N3)C(=O)OCC(C)(C)C2)C1,IC50,second compound 0.000949 µM,< 31.6 nM
same,IC50,second compound 0.003 µM,< 31.6 nM
same,IC50,second compound 0.00949 µM,< 31.6 nM
same,IC50,second compound 0.03 µM,< 31.6 nM
same,IC50,second compound 0.0949 µM,< 31.6 nM
same,IC50,second compound 0.3 µM,< 31.6 nM
same,"viability, T/C","second compound 0.000949 µM, first compound 0.0316 µM",15.9%
same,"viability, T/C","second compound 0.000949 µM, first compound 0.1 µM",14.2%
same,"viability, T/C","second compound 0.000949 µM, first compound 0.316 µM",15.5%
same,"viability, T/C","second compound 0.000949 µM, first compound 1 µM",16.5%
same,"viability, T/C","second compound 0.000949 µM, first compound 3.16 µM",19.8%
same,"viability, T/C","second compound 0.000949 µM, first compound 10 µM",21.5%
same,"viability, T/C","second compound 0.003 µM, first compound 0.0316 µM",17.4%
same,"viability, T/C","second compound 0.003 µM, first compound 0.1 µM",16.5%
same,"viability, T/C","second compound 0.003 µM, first compound 0.316 µM",16.2%
same,"viability, T/C","second compound 0.003 µM, first compound 1 µM",14.6%
same,"viability, T/C","second compound 0.003 µM, first compound 3.16 µM",19.8%
same,"viability, T/C","second compound 0.003 µM, first compound 10 µM",22.8%
same,"viability, T/C","second compound 0.00949 µM, first compound 0.0316 µM",17.3%
same,"viability, T/C","second compound 0.00949 µM, first compound 0.1 µM",15.3%
same,"viability, T/C","second compound 0.00949 µM, first compound 0.316 µM",15.9%
same,"viability, T/C","second compound 0.00949 µM, first compound 1 µM",15.7%
same,"viability, T/C","second compound 0.00949 µM, first compound 3.16 µM",20.1%
same,"viability, T/C","second compound 0.00949 µM, first compound 10 µM",22.8%
same,"viability, T/C","second compound 0.03 µM, first compound 0.0316 µM",16.3%
same,"viability, T/C","second compound 0.03 µM, first compound 0.1 µM",16.2%
same,"viability, T/C","second compound 0.03 µM, first compound 0.316 µM",15%
same,"viability, T/C","second compound 0.03 µM, first compound 1 µM",17%
same,"viability, T/C","second compound 0.03 µM, first compound 3.16 µM",21.6%
same,"viability, T/C","second compound 0.03 µM, first compound 10 µM",25.4%
same,"viability, T/C","second compound 0.0949 µM, first compound 0.0316 µM",15.3%
same,"viability, T/C","second compound 0.0949 µM, first compound 0.1 µM",14.8%
same,"viability, T/C","second compound 0.0949 µM, first compound 0.316 µM",13.2%
same,"viability, T/C","second compound 0.0949 µM, first compound 1 µM",15.3%
same,"viability, T/C","second compound 0.0949 µM, first compound 3.16 µM",20.2%
same,"viability, T/C","second compound 0.0949 µM, first compound 10 µM",24.3%
same,"viability, T/C","second compound 0.3 µM, first compound 0.0316 µM",14.9%
same,"viability, T/C","second compound 0.3 µM, first compound 0.1 µM",15.8%
same,"viability, T/C","second compound 0.3 µM, first compound 0.316 µM",14.4%
same,"viability, T/C","second compound 0.3 µM, first compound 1 µM",13.9%
same,"viability, T/C","second compound 0.3 µM, first compound 3.16 µM",17.6%
same,"viability, T/C","second compound 0.3 µM, first compound 10 µM",26.2%
